# Values quoted from earlier work as cited in patent US7087637B2, “Substituted indoles which are PARP inhibitors” (BASF AG, priority 2000, dated 2006).
# Settings: S. Cuzzocrea et al., Br. J. Pharmacol. 1997, 121, 1065–1074
smiles,measurement,value
NC(=O)c1cccc(N)c1 [3-aminobenzamide],effects in a model of circulatory shock,protective effects
